# Results: US20230392179A1 (SOOCHOW UNIVERSITY, priority 2021, published 2023)
# System: Mycobacterium smegmatis containing plasmid PMV261-Kana^R-65S-RecA intein
# Experiment: Intein splicing inhibitor screening system: growth (OD600) of Mycobacterium smegmatis carrying Kana^R-65S-RecA intein in kanamycin medium
# Conditions: 20 μM cisplatin, kanamycin 50 μg/mL plus hygromycin, 37° C., 100 h
structure (smiles),measurement,value
N.N.[Cl][Pt][Cl] [cisplatin],inhibition rate of growth of Mycobacterium smegmatis containing plasmid PMV261-Kana^R-65S-RecA intein,62%
